Target: T1, plant Photosystem II (PSII), D1 protein QB site, pea (Lathyrus oleraceus, UniProt P06585)
T1 construct: gene psbA; native D1 within whole PSII complex (D1/D2 reaction centre) in isolated thylakoid membranes from 4-week-old pea leaves; no tag, not purified further
Experiment: DPIP photoreduction (Hill reaction, […] nm) in isolated thylakoid membranes, Langmuir isotherm fit
Type: biochemical
Settings: pH 7.2, 100 µM DPIP, 5 mM NH4Cl, 5 mM MgCl2, 15 µg/mL Chl, white light 500 µmol photons m^-2 s^-1, 10 min dark preincubation at room temperature, competitive with plastoquinone, read-out: DPIP Photoreduction / I50

| SMILES | IC50 |
| --- | --- |
| CC(C)N1C(=O)c2ccccc2NS1(=O)=O [Bentazon] | 6160 nM |
| CN(C)C(=O)Nc1ccc(Cl)c(Cl)c1 [Diuron] | 71.8 nM |
| CSc1nnc(C(C)(C)C)c(=O)n1N [Metribuzin] | 156 nM |
| CCNc1nc(Cl)nc(NC(C)(C)C)n1 [Terbuthylazine] | 110 nM |
